The target of assay [1] is T1, AR-VP16 (Homo sapiens, UniProt P10275).
T1 sequence (P10275 560-920 limits assumed): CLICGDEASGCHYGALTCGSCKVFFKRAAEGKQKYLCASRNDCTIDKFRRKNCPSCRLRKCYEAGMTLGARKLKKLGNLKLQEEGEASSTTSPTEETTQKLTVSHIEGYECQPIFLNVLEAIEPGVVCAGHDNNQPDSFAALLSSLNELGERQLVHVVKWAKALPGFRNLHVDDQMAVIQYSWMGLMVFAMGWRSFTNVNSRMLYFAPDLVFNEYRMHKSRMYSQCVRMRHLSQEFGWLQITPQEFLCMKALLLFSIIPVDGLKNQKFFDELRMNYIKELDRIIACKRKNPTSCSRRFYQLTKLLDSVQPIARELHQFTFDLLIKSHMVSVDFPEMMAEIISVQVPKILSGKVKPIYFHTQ
Briefly: AR-VP16 DNA Binding Assay, agonist mode (HepG2 cells). Type of assay: cell-based. The conditions noted are these: Emax >20x DMSO control = agonist.

The target of assay [2] is T1, AR-VP16. Briefly: AR-VP16 DNA Binding Assay, antagonist mode (HepG2 cells, 0.1 nM R1881). Type of assay: cell-based. In outline:
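Transfected HepG2 cells expressing AR-VP16 received serially diluted compound in charcoal-stripped-serum RPMI the day after transfection, with 0.1 nM R1881 (final) added only for antagonist testing. After 48 h, cells were lysed for measurement.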

The term IC50 denotes the concentration that gives 50% inhibition. Read a low IC50 as greater potency. With `Cc1cc(N2C(=O)C3(CCC3)N(c3ccc(OC4CCSCC4)cc3)C2=S)cnc1C#N` [Compound 195, 3-Methyl-5-(8-oxo-5-(4-((tetrahydro-2H-thiopyran-4-yl)oxy)phenyl)-6-thioxo-5,7-diazaspiro[3.4]octan-7-yl)picolinonitrile], in assay [1], the “ARVP16 DNA Binding Assay (Agonist mode): Agonist?” value (“ARVP16 DNA Binding Assay” below) is on record as “No (Agonist defined as a compound whose Emax in the ARVP16 DNA Binding Assay (Agonist mode) is >20x DMSO control)”. This compound also displayed an IC50 in assay [2] of less than 1000 nM.
Consider `N#Cc1ncc(N2C(=O)C3(CCC3)N(c3ccc(Oc4ccccc4)cc3)C2=S)cc1C(F)(F)F` [Compound 25, 5-(8-Oxo-5-(4-phenoxyphenyl)-6-thioxo-5,7-diazaspiro[3.4]octan-7-yl)-3-(trifluoromethyl)picolinonitrile], for which, in assay [1], the “ARVP16 DNA Binding Assay” value was “No (Agonist defined as a compound whose Emax in the ARVP16 DNA Binding Assay (Agonist mode) is >20x DMSO control)”. In addition, the IC50 in assay [2] is less than 1000 nM.
The corresponding values for `COC(=O)c1ccc(N2C(=S)N(c3cnc(C#N)c(C)c3)C(=O)C23CCC3)c(F)c1` [Compound 71, Methyl 4-(7-(6-cyano-5-methylpyridin-3-yl)-8-oxo-6-thioxo-5,7-diazaspiro[3.4]octan-5-yl)-3-fluorobenzoate] are “No (Agonist defined as a compound whose Emax in the ARVP16 DNA Binding Assay (Agonist mode) is >20x DMSO control)” and more than 1000 nM.
On the same counts, the results for `N#Cc1ncc(N2C(=O)C3(CCC3)N(c3ccc(OCCc4ccc5ccccc5c4)c(F)c3)C2=S)cc1C(F)(F)F` [Compound 141, 5-(5-(3-Fluoro-4-(2-(naphthalen-2-yl)ethoxy)phenyl)-8-oxo-6-thioxo-5,7-diazaspiro[3.4]octan-7-yl)-3-(trifluoromethyl)picolinonitrile] are “Yes (Agonist defined as a compound whose Emax in the ARVP16 DNA Binding Assay (Agonist mode) is >20x DMSO control)” and more than 1000 nM.
The corresponding values for `N#Cc1ncc(N2C(=O)C3(CCC3)N(c3ccc(F)cc3)C2=S)cc1C(F)(F)F` [Compound 28, 5-(5-(4-Fluorophenyl)-8-oxo-6-thioxo-5,7-diazaspiro[3.4]octan-7-yl)-3-(trifluoromethyl)picolinonitrile] are “No (Agonist defined as a compound whose Emax in the ARVP16 DNA Binding Assay (Agonist mode) is >20x DMSO control)” and less than 1000 nM.
As to `N#Cc1ncc(N2C(=O)C3(CCC3)N(c3ccc(S(N)(=O)=O)cc3)C2=S)cc1C(F)(F)F` [Compound 81, 4-(7-(6-cyano-5-(trifluoromethyl)pyridin-3-yl)-8-oxo-6-thioxo-5,7-diazaspiro-[3.4]octan-5-yl)benzenesulfonamide], the “ARVP16 DNA Binding Assay” value in assay [1] is on record as “No (Agonist defined as a compound whose Emax in the ARVP16 DNA Binding Assay (Agonist mode) is >20x DMSO control)”. Moreover, in assay [2], the IC50 was more than 1000 nM.
The corresponding values for `CNC(=O)c1ccc(N2C(=S)N(c3ccc(C#N)n4nccc34)C(=O)C23CCC3)cc1F` [Compound 83, 4-(7-(7-Cyanopyrazolo[1,5-a]pyridin-4-yl)-8-oxo-6-thioxo-5,7-diazaspiro[3.4]octan-5-yl)-2-fluoro-N-methylbenzamide] are “No (Agonist defined as a compound whose Emax in the ARVP16 DNA Binding Assay (Agonist mode) is >20x DMSO control)” and more than 1000 nM.
The corresponding values for `N#Cc1ncc(N2C(=O)C3(CCC3)N(c3ccc(OCCc4cccnc4)c(F)c3)C2=S)cc1C(F)(F)F` [Compound 144, 5-(5-(3-Fluoro-4-(2-(pyridin-3-yl)ethoxy)phenyl)-8-oxo-6-thioxo-5,7-diazaspiro[3.4]octan-7-yl)-3-(trifluoromethyl)picolinonitrile] are “Yes (Agonist defined as a compound whose Emax in the ARVP16 DNA Binding Assay (Agonist mode) is >20x DMSO control)” and less than 1000 nM.
The corresponding values for `COC(=O)CCCc1ccc(N2C(=S)N(c3cnc(C#N)c(C(F)(F)F)c3)C(=O)C23CCC3)cc1` [Compound 122, Methyl 4-(4-(7-(6-cyano-5-(trifluoromethyl)pyridin-3-yl)-8-oxo-6-thioxo-5,7-diazaspiro[3.4]octan-5-yl)phenyl)butanoate] are “No (Agonist defined as a compound whose Emax in the ARVP16 DNA Binding Assay (Agonist mode) is >20x DMSO control)” and more than 1000 nM.
As to `CNC(=O)c1ccc(N2C(=S)N(c3cnc(C#N)c(C)c3)C(=O)C23CCC3)cc1C` [Compound 106, 4-(7-(6-Cyano-5-methylpyridin-3-yl)-8-oxo-6-thioxo-5,7-diazaspiro[3.4]octan-5-yl)-N,2-dimethylbenzamide], the “ARVP16 DNA Binding Assay” value in assay [1] is recorded as “No (Agonist defined as a compound whose Emax in the ARVP16 DNA Binding Assay (Agonist mode) is >20x DMSO control)”. In addition, the IC50 in assay [2] is less than 1000 nM.
The corresponding values for `N#Cc1ncc(N2C(=O)C3(CCC3)N(c3ccc(C(=O)NCCN4CCOCC4)c(F)c3)C2=S)cc1C(F)(F)F` [Compound 242, 4-(7-(6-Cyano-5-(trifluoromethyl)pyridin-3-yl)-8-oxo-6-thioxo-5,7-diazaspiro[3.4]octan-5-yl)-2-fluoro-N-(2-morpholinoethyl)benzamide] are “No (Agonist defined as a compound whose Emax in the ARVP16 DNA Binding Assay (Agonist mode) is >20x DMSO control)” and less than 1000 nM.
On the same counts, the results for `CN(CCCNC(=O)c1ccc(N2C(=S)N(c3cnc(C#N)c(C(F)(F)F)c3)C(=O)C23CCC3)cc1F)C1CCCC1` [Compound 307, 4-(7-(6-Cyano-5-(trifluoromethyl)pyridin-3-yl)-8-oxo-6-thioxo-5,7-diazaspiro[3.4]octan-5-yl)-N-(3-(cyclopentyl(methyl)amino)propyl)-2-fluorobenzamide] are “No (Agonist defined as a compound whose Emax in the ARVP16 DNA Binding Assay (Agonist mode) is >20x DMSO control)” and less than 1000 nM.
The corresponding values for `COc1cc(F)ccc1N1C(=S)N(c2cnc(C#N)c(C(F)(F)F)c2)C(=O)C12CCC2` [Compound 29, 5-(5-(4-Fluoro-2-methoxyphenyl)-8-oxo-6-thioxo-5,7-diazaspiro[3.4]octan-7-yl)-3-(trifluoromethyl)picolinonitrile] are “No (Agonist defined as a compound whose Emax in the ARVP16 DNA Binding Assay (Agonist mode) is >20x DMSO control)” and less than 1000 nM.
Consider `N#Cc1ncc(N2C(=O)C3(CCC3)N(c3ccc(C(=O)Nc4cccnc4)c(F)c3)C2=S)cc1C(F)(F)F` [Compound 262, 4-(7-(6-Cyano-5-(trifluoromethyl)pyridin-3-yl)-8-oxo-6-thioxo-5,7-diazaspiro[3.4]octan-5-yl)-2-fluoro-N-(pyridin-3-yl)benzamide], for which the “ARVP16 DNA Binding Assay” value in assay [1] is on record as “No (Agonist defined as a compound whose Emax in the ARVP16 DNA Binding Assay (Agonist mode) is >20x DMSO control)”. For the same compound, the IC50 in assay [2] is less than 1000 nM.
The corresponding values for `COCCOc1ccc(N2C(=S)N(c3cnc(C#N)c(C)c3)C(=O)C23CCC3)cc1F` [Compound 168, 5-(5-(3-Fluoro-4-(2-methoxyethoxy)phenyl)-8-oxo-6-thioxo-5,7-diazaspiro[3.4]octan-7-yl)-3-methylpicolinonitrile] are “No (Agonist defined as a compound whose Emax in the ARVP16 DNA Binding Assay (Agonist mode) is >20x DMSO control)” and less than 1000 nM.
On the same counts, the results for `N#Cc1ncc(N2C(=O)C3(CCC3)N(c3ccc(O)c(F)c3)C2=S)cc1C(F)(F)F` [Compound 1, 5-(5-(3-Fluoro-4-hydroxyphenyl)-8-oxo-6-thioxo-5,7-diazaspiro[3.4]octan-7-yl)-3-(trifluoromethyl)picolinonitrile] are “No (Agonist defined as a compound whose Emax in the ARVP16 DNA Binding Assay (Agonist mode) is >20x DMSO control)” and less than 1000 nM.
Take `CNC(=O)c1ccc(N2C(=S)N(c3cnc(C#N)c(C)c3)C(=O)C23CCC3)cc1F` [Compound 5, 4-(7-(6-Cyano-5-methylpyridin-3-yl)-8-oxo-6-thioxo-5,7-diazaspiro[3.4]octan-5-yl)-2-fluoro-N-methylbenzamide]: in assay [1], the “ARVP16 DNA Binding Assay” value was “No (Agonist defined as a compound whose Emax in the ARVP16 DNA Binding Assay (Agonist mode) is >20x DMSO control)”. Moreover, the half-inhibitory concentration (IC50) in assay [2] is less than 1000 nM.
On the same counts, the results for `N#Cc1ncc(N2C(=O)C3(CCC3)N(c3ccc(Oc4cccnc4)cc3)C2=S)cc1C(F)(F)F` [Compound 39, 5-(8-Oxo-5-(4-(pyridin-3-yloxy)phenyl)-6-thioxo-5,7-diazaspiro[3.4]octan-7-yl)-3-(trifluoromethyl)picolinonitrile] are “Yes (Agonist defined as a compound whose Emax in the ARVP16 DNA Binding Assay (Agonist mode) is >20x DMSO control)” and less than 1000 nM.
In the case of `Cc1cc(N2C(=O)C3(CCC3)N(c3ccc(OCCN4CCN(C)CC4)c(F)c3)C2=S)cnc1C#N` [Compound 170, 5-(5-(3-Fluoro-4-(2-(4-methylpiperazin-1-yl)ethoxy)phenyl)-8-oxo-6-thioxo-5,7-diazaspiro[3.4]octan-7-yl)-3-methylpicolinonitrile], the “ARVP16 DNA Binding Assay” value in assay [1] is listed as “Yes (Agonist defined as a compound whose Emax in the ARVP16 DNA Binding Assay (Agonist mode) is >20x DMSO control)”. Besides, the IC50 in assay [2] was less than 1000 nM.

(Values after patent US9108944B2, “Androgen receptor modulators and uses thereof” (ARAGON PHARMACEUTICALS, INC., priority 2010, dated 2015).)
